Measured values as given in patent US20230183746A1, “COMPOSITIONS FOR TRANSFER OF CARGO TO CELLS” (Sixfold Bioscience Ltd., priority 2019, published 2023).
Entries after “also recorded” stand apart in the source; their conditions may differ. {Cy5} = Cy5 fluorescent dye; r = 2'-OH (RNA); f = 2'-fluoro

Experiments:
[1] = system: EGFRvIII overexpressing HEK293T cells; assay: FACS based fluorescent molecule uptake assay; assay type: cell-based; details: 200 nM, 2 hours
From the text: A number of different cell types have been trialled for a FACS based fluorescent molecule uptake assay. These include stably transfected HEK293T cells overexpressing the truncated mutant EGFRvIII, which is characterised by a deletion of 267 amino acids in the extracellular domain and results in a receptor unable to bind ligand yet constitutively active. WT cells with various endogenous levels of EGFR expression have also been trialled: HELA cells (EGFR+), MCF-7 (EGFR-), MDA-MB-231 (EGFR+), and A549 (EGFR+). Seeding densities used were identical for all experiments and described below.
Cells were plated with 1x10^5 cells per well of 24 well plates. 24 hours later cells were treated with 200 nM of specified aptamer (A-1.0 or A-2.0) or nucleic acid nanoparticle in 250 µL DMEM media for 2 hours. To terminate internalisation, media was removed from cells and washed with 500 µL Dulbecco’s Phosphate Buffered Saline (D-PBS), followed by trypsinisation, neutralisation in DMEM media and transfer to labelled 1.5 mL Eppendorf tubes. […]
Geometric mean quantification of flow cytometry results after normalisation by removal of respective background fluorescence in untreated cells. Numbers above the bars are calculated fold increase in internalisation between control and EGFRvIII overexpressing HEK293T cells. […]

[2] = system: cancer cells expressing EGFR; assay: confocal microscopy of Cy5-labelled aptamer/construct uptake; assay type: cell-based; details: live HeLa cells, 200 nM, Lysotracker and early endosome GFP stains
Experimental: Cells were imaged by confocal microscopy after treatment with 200 nM Cy5-labelled E07min aptamer (A-1.0) or 200 nM Cy5-labelled constructs (SQ1-1000-001). For aptamer uptake experiments, 1x10^4 cells were plated in each well of a µ-Slide 8 well ibiditreat chamber (IBIDI), in 300 µL DMEM containing 10% v/v FBS. For uptake experiments, 3.4x10^3 cells (HeLa, MDA-MB-231 and A549 cells) or 6.8x10^3 cells (Mcf-7) were plated in each well of a µ-Slide 18 well ibiditreat chamber (IBIDI), in 100 µL DMEM containing 10% v/v FBS. 5 hours after cells had adhered and 48 hours before imaging, media was replaced with 50 particles per cell (PPC) CellLight early endosome-GFP (Thermo Fisher Scientific) for overnight incubation at 37° C. Additionally, 200 µL DMEM aliquots containing 200 nM aptamer were added to cells at corresponding incubation time points. Subsequently, media was removed and replaced with 60 nM LysoTracker Red DND-99 (Thermo Fisher Scientific) in 100-200 µL DMEM for 1 hour at 37° C. Cells were then washed once with Hank’s Balanced Salt Solution (HBSS) (Gibco). Finally, 100-200 µL imaging media (HBSS buffered with 20 mM 4-(2- hydroxyethyl)-1-piperazineethanesulfonic acid (HEPES), adjusted to pH 7.4) was added to cells. Confocal images were captured with an EVOS microscope or a Zeiss LSM510 laser scanning microscope using 60x oil objective lens. Images were produced using ImageJ software.

Substance: [Cy5] GGAcGGAuuuAAucGccGuAGAAAAGCAuGucAAAGccGGAAccGucc (GGACGGAUUUAAUCGCCGUAGAAAAGCAUGUCAAAGCCGGAACCGUCC; sugars from the 5' end rrrfrrrfffrrffrffrfrrrrrrrrrfrffrrrrffrrrrffrfff, 5' {Cy5}, backbone not given here) [A-1.0, 2′F U, C 5′ Cy5 E07min (SXF1) aptamer, anti-EGFR, literature-known]
- EGFR targeting specificity compared to a scramble control aptamer (A-3.0) ([1]; control vs EGFRvIII overexpressing HEK293T cells): 10 fold
- specificity of uptake (flow cytometry) ([1]; Cy5-labelled aptamer): more specifically uptaken than SXF2 (CL4 aptamer); also recorded: specifically uptaken by EGFR expressing cells
- intracellular localisation after internalisation [2]: accumulate in lysosomes after internalisation
